Experimental findings from patent publication US20100077512A1 (priority 2006, published 2010) are described below.

For data set [1], the system named is tobacco budworm (Heliothis virescens). Particulars: 2500 ppm, eggs sprayed, 6 days. On the procedure: 15 to 25 eggs were placed into microtiterplates filled with diet. The eggs were sprayed with 10 μl of the test solution, the plates were sealed with pierced foils and kept at 27-29° C. and 75-85% humidity under fluorescent light for 6 days. Mortality was assessed on the basis of the agility and of comparative feeding of the hatched larvae. Tests were replicated 2 times.

Data set [2] has as its system Mediterranean fruitfly (Ceratitis capitata). Particulars: 2500 ppm, eggs sprayed, 6 days.

As usually defined, the melting point is the temperature, or range, at which the solid turns liquid.

SMILES strings stand for the structures.

Take `O=S(=O)(NCc1ccnnc1)c1cc(Br)cs1`: the melting point lay in the range of 120 to 122 °C.

As to `N#Cc1ccc(-c2ccc(S(=O)(=O)NCc3ccnnc3)cc2)cc1` [Example 11], the mortality result in data set [1] is listed as “at least 75%”.

Regarding `O=S(=O)(NCc1ccnnc1)c1ccc(-c2ccc(Cl)cc2)nc1` [Example 60], the mortality result in data set [2] was “at least 75%”.
